Measured values as given in US20250340557A1, “PYRIMIDINE DERIVATIVE” (ASKA PHARMACEUTICAL CO., LTD., priority 2022, published 2025).

The molecules below were run against T1, human mPGES-1 (Homo sapiens, UniProt O14684) (assay: Test for mPGES-1 inhibitory activity (microsomal enzyme, PGE2 EIA)). Conditions: microsomes from COS-1 cells transfected with human mPGES-1 cDNA; substrate PGH2 1 μM; 4° C., 4 minutes; PGE2 measured by EIA; read-out: h mPGES1 IC50.
T1 construct: made in house; host or cells: COS-1 cells (transient transfection; microsomal fraction used as enzyme)
T1 sequence (O14684 1-152): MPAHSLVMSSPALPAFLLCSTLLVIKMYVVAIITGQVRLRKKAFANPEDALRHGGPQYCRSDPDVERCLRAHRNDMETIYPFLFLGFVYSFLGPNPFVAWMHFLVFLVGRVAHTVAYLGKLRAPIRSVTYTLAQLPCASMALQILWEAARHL
Assay type: biochemical
Procedure, shortened: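 IC50 values were derived from EIA-quantified PGE2 after a 4 min, 4 °C reaction with PGH2 at 1 μM final, stopped with ferric chloride/citric acid. Beforehand, compound (2% DMSO final) sat 15 min at 4 °C with human mPGES-1 microsomes from transiently transfected COS-1 cells. Buffer was sodium phosphate pH 7.2 containing 2.5 mM reduced glutathione and 1 mM EDTA.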

Q: With `O=C(NCc1ccc(C(F)(F)F)c(-c2nc(C(F)(F)F)cc(=O)[nH]2)c1F)C1CCN(c2cccc(C(F)F)c2)CC1` [Example 65, 1-[3-(difluoromethyl)phenyl]-N-{2-fluoro-3-[6-oxo-4-(trifluoromethyl)-1,6-dihydropyrimidin-2-yl]-4-(trifluoromethyl)benzyl}piperidine-4-carboxamide] as the molecule, how does the IC50 read?
A: Its IC50 is under 1 nM.

Q: For `O=C(NCc1ccc(C(F)(F)F)c(-c2nc(C(F)(F)F)cc(=O)[nH]2)c1F)C1CCN(c2ccc(OC(F)(F)F)cc2)CC1` [Example 68, N-{2-fluoro-3-[6-oxo-4-(trifluoromethyl)-1,6-dihydropyrimidin-2-yl]-4-(trifluoromethyl)benzyl}-1-[4-(trifluoromethoxy)phenyl]piperidine-4-carboxamide], which IC50 is on record?
A: The IC50 was under 1 nM.

Q: `Cc1nc(-c2c(C(F)(F)F)ccc(CNC(=O)[C@H]3CC[C@H](OCc4cccc(Cl)c4)CC3)c2F)[nH]c(=O)c1F` [Example 123, trans-4-[(3-chlorobenzyl)oxy]-N-[2-fluoro-3-(5-fluoro-4-methyl-6-oxo-1,6-dihydropyrimidin-2-yl)-4-(trifluoromethyl)benzyl]cyclohexane-1-carboxamide] was tested. Which IC50 did it give?
A: Its IC50 is under 1 nM.

Q: Which IC50 does the source give for `Cc1cc(=O)[nH]c(-c2c(C(F)(F)F)ccc(CNC(=O)C3CCN(c4ccc(Cl)cc4)CC3)c2F)n1` [Example 76, 1-(4-chlorophenyl)-N-[2-fluoro-3-(4-methyl-6-oxo-1,6-dihydropyrimidin-2-yl)-4-(trifluoromethyl)benzyl]piperidine-4-carboxamide] here?
A: The IC50 was 31 nM.

Q: For `O=c1cc(C(F)(F)F)nc(-c2c(C(F)(F)F)ccc(CNC(=O)[C@H]3CC[C@H](OCc4ccc(Cl)cc4)CC3)c2F)[nH]1` [Example 101, trans-4-[(4-chlorobenzyl)oxy]-N-{2-fluoro-3-[6-oxo-4-(trifluoromethyl)-1,6-dihydropyrimidin-2-yl]-4-(trifluoromethyl)benzyl}cyclohexane-1-carboxamide], which IC50 is on record?
A: The IC50 was under 1 nM.

Q: With `O=c1cc(C(F)(F)F)nc(-c2c(C(F)(F)F)ccc(CNC(=O)[C@H]3C[C@@H](OCc4ccc(Cl)cc4)C3)c2F)[nH]1` [Example 141, cis-3-[(4-chlorobenzyl)oxy]-N-{2-fluoro-3-[6-oxo-4-(trifluoromethyl)-1,6-dihydropyrimidin-2-yl]-4-(trifluoromethyl)benzyl}cyclobutane-1-carboxamide] as the molecule, how does the IC50 read?
A: Its IC50 is under 1 nM.

Q: Which IC50 does the source give for `CCc1nc(-c2c(C(F)(F)F)ccc(CNC(=O)C3CCN(c4ccc(OC(F)(F)F)cc4)CC3)c2F)[nH]c(=O)c1F` [Example 80, N-[3-(4-ethyl-5-fluoro-6-oxo-1,6-dihydropyrimidin-2-yl)-2-fluoro-4-(trifluoromethyl)benzyl]-1-[4-(trifluoromethoxy)phenyl]piperidine-4-carboxamide] here?
A: The IC50 was 22 nM.

Q: For `O=c1cc(C(F)(F)F)nc(-c2c(C(F)(F)F)ccc(CNC(=O)[C@H]3C[C@H](OCc4ccccc4)C3)c2F)[nH]1` [Example 134, trans-3-(benzyloxy)-N-{2-fluoro-3-[6-oxo-4-(trifluoromethyl)-1,6-dihydropyrimidin-2-yl]-4-(trifluoromethyl)benzyl}cyclobutane-1-carboxamide], which IC50 is on record?
A: The IC50 was under 10 nM.

Q: With `O=C(NCc1ccc(C(F)(F)F)c(-c2nc(C(F)(F)F)cc(=O)[nH]2)c1F)C1CCN(c2cccc(Cl)c2)CC1` [Example 62, 1-(3-chlorophenyl)-N-{2-fluoro-3-[6-oxo-4-(trifluoromethyl)-1,6-dihydropyrimidin-2-yl]-4-(trifluoromethyl)benzyl}piperidine-4-carboxamide] as the molecule, how does the IC50 read?
A: The IC50 was under 1 nM.

Q: `Cc1cc(=O)[nH]c(-c2c(C(F)(F)F)ccc(CNC(=O)C3(F)CCN(c4ccc(C(F)(F)F)cn4)CC3)c2F)n1` [Example 56, 4-fluoro-N-[2-fluoro-3-(4-methyl-6-oxo-1,6-dihydropyrimidin-2-yl)-4-(trifluoromethyl)benzyl]-1-[5-(trifluoromethyl)pyridin-2-yl]piperidine-4-carboxamide] was tested. Which IC50 did it give?
A: Its IC50 is 21 nM.

Same assay, conditions: microsomes of COS-1 cells transfected with human mPGES-1 cDNA; PGH2 1 μM; 4° C., 4 minutes; PGE2 by EIA; read-out: h mPGES1 IC50

Q: With `CCc1cc(=O)[nH]c(-c2c(C(F)(F)F)ccc(CNC(=O)[C@H]3C[C@H](OCc4ccccc4Cl)C3)c2F)n1` [Example 195, trans-3-[(2-chlorobenzyl)oxy]-N-[3-(4-ethyl-6-oxo-1,6-dihydropyrimidin-2-yl)-2-fluoro-4-(trifluoromethyl)benzyl]cyclobutane-1-carboxamide] as the molecule, how does the IC50 read?
A: Its IC50 is under 1 nM.

Q: Which IC50 does the source give for `Cc1cc(=O)[nH]c(-c2c(C(F)(F)F)ccc(CNC(=O)[C@H]3C[C@H](OCc4ccc(Cl)cc4)C3)c2F)n1` [Example 180, trans-3-[(4-chlorobenzyl)oxy]-N-[2-fluoro-3-(4-methyl-6-oxo-1,6-dihydropyrimidin-2-yl)-4-(trifluoromethyl)benzyl]cyclobutane-1-carboxamide] here?
A: Its IC50 is 1.7 nM.

Q: Which IC50 does the source give for `O=C(NCc1ccc(C(F)(F)F)c(-c2nc(C(F)(F)F)cc(=O)[nH]2)c1F)C1CCN(CCc2ccccc2)CC1` [Example 278, N-{2-fluoro-3-[6-oxo-4-(trifluoromethyl)-1,6-dihydropyrimidin-2-yl]-4-(trifluoromethyl)benzyl}-1-phenethylpiperidine-4-carboxamide] here?
A: The IC50 was 35 nM.

Q: How did the IC50 turn out when `O=c1cc(C(F)F)nc(-c2c(C(F)(F)F)ccc(CNC(=O)[C@H]3C[C@H](OCc4ccc(F)cc4Cl)C3)c2F)[nH]1` [Example 173, trans-3-[(2-chloro-4-fluorobenzyl)oxy]-N-{3-[4-(difluoromethyl)-6-oxo-1,6-dihydropyrimidin-2-yl]-2-fluoro-4-(trifluoromethyl)benzyl}cyclobutane-1-carboxamide] was run?
A: Its IC50 is under 1 nM.

Q: Which IC50 does the source give for `O=c1cc(C(F)F)nc(-c2c(C(F)(F)F)ccc(CNC(=O)[C@H]3C[C@H](OCc4ccc(Cl)cc4F)C3)c2F)[nH]1` [Example 168, trans-3-[(4-chloro-2-fluorobenzyl)oxy]-N-{3-[4-(difluoromethyl)-6-oxo-1,6-dihydropyrimidin-2-yl]-2-fluoro-4-(trifluoromethyl)benzyl}cyclobutane-1-carboxamide] here?
A: The IC50 was under 1 nM.

Q: Which IC50 does the source give for `O=c1cc(C(F)F)nc(-c2c(C(F)(F)F)ccc(CNC(=O)[C@H]3C[C@H](OCc4cc(F)cc(Cl)c4)C3)c2F)[nH]1` [Example 177, trans-3-[(3-chloro-5-fluorobenzyl)oxy]-N-{3-[4-(difluoromethyl)-6-oxo-1,6-dihydropyrimidin-2-yl]-2-fluoro-4-(trifluoromethyl)benzyl}cyclobutane-1-carboxamide] here?
A: Its IC50 is 10 nM.

Q: For `O=c1cc(C(F)(F)F)nc(-c2c(C(F)(F)F)ccc(CNC(=O)[C@H]3C[C@H](OCc4cccc(F)c4F)C3)c2F)[nH]1` [Example 153, trans-3-[(2,3-difluorobenzyl)oxy]-N-{2-fluoro-3-[6-oxo-4-(trifluoromethyl)-1,6-dihydropyrimidin-2-yl]-4-(trifluoromethyl)benzyl}cyclobutane-1-carboxamide], which IC50 is on record?
A: Its IC50 is under 1 nM.

Q: `O=c1cc(C(F)F)nc(-c2c(C(F)(F)F)ccc(CNC(=O)[C@H]3C[C@H](OCc4cccc(C(F)(F)F)c4)C3)c2F)[nH]1` [Example 165, trans-N-{3-[4-(difluoromethyl)-6-oxo-1,6-dihydropyrimidin-2-yl]-2-fluoro-4-(trifluoromethyl)benzyl}-3-{[3-(trifluoromethyl)benzyl]oxy}cyclobutane-1-carboxamide] was tested. Which IC50 did it give?
A: The IC50 was under 1 nM.

Q: How did the IC50 turn out when `Cc1cc(=O)[nH]c(-c2c(C(F)(F)F)ccc(CNC(=O)[C@H]3C[C@H](OCc4cc(Cl)ccc4F)C3)c2F)n1` [Example 192, trans-3-[(5-chloro-2-fluorobenzyl)oxy]-N-[2-fluoro-3-(4-methyl-6-oxo-1,6-dihydropyrimidin-2-yl)-4-(trifluoromethyl)benzyl]cyclobutane-1-carboxamide] was run?
A: The IC50 was under 1 nM.

Q: `Cc1nc(-c2c(C(F)(F)F)ccc(CNC(=O)[C@H]3C[C@H](OCc4cccc(C(F)(F)F)c4)C3)c2F)[nH]c(=O)c1F` [Example 216, trans-N-[2-fluoro-3-(5-fluoro-4-methyl-6-oxo-1,6-dihydropyrimidin-2-yl)-4-(trifluoromethyl)benzyl]-3-{[3-(trifluoromethyl)benzyl]oxy}cyclobutane-1-carboxamide] was tested. Which IC50 did it give?
A: Its IC50 is 16 nM.

Q: `CCc1cc(=O)[nH]c(-c2c(C(F)(F)F)ccc(CNC(=O)[C@H]3C[C@H](OCc4ccc(F)cc4F)C3)c2F)n1` [Example 201, trans-3-[(2,4-difluorobenzyl)oxy]-N-[3-(4-ethyl-6-oxo-1,6-dihydropyrimidin-2-yl)-2-fluoro-4-(trifluoromethyl)benzyl]cyclobutane-1-carboxamide] was tested. Which IC50 did it give?
A: Its IC50 is under 1 nM.

Q: How did the IC50 turn out when `CC(C)CO[C@H]1C[C@@H](C(=O)NCc2ccc(C(F)(F)F)c(-c3nc(C(F)(F)F)cc(=O)[nH]3)c2F)C1` [Example 257, cis-N-{2-fluoro-3-[6-oxo-4-(trifluoromethyl)-1,6-dihydropyrimidin-2-yl]-4-(trifluoromethyl)benzyl}-3-isobutoxycyclobutane-1-carboxamide] was run?
A: Its IC50 is 5.8 nM.

Q: Which IC50 does the source give for `O=c1cc(C(F)F)nc(-c2c(C(F)(F)F)ccc(CNC(=O)[C@H]3C[C@H](OCc4ccc(C(F)(F)F)cc4)C3)c2F)[nH]1` [Example 166, trans-N-{3-[4-(difluoromethyl)-6-oxo-1,6-dihydropyrimidin-2-yl]-2-fluoro-4-(trifluoromethyl)benzyl}-3-{[4-(trifluoromethyl)benzyl]oxy}cyclobutane-1-carboxamide] here?
A: Its IC50 is 8.8 nM.

Q: For `CCc1cc(=O)[nH]c(-c2c(C(F)(F)F)ccc(CNC(=O)[C@H]3C[C@H](OCc4cccc(F)c4)C3)c2F)n1` [Example 205, trans-N-[3-(4-ethyl-6-oxo-1,6-dihydropyrimidin-2-yl)-2-fluoro-4-(trifluoromethyl)benzyl]-3-[(3-fluorobenzyl)oxy]cyclobutane-1-carboxamide], which IC50 is on record?
A: The IC50 was 14 nM.
